We go through 26 compounds from US11325936B2, “Sialidase inhibitors and preparation thereof” (The Regents of the University of California, priority 2017, dated 2022).

For one assay, the target named is SpNanB (Streptococcus pneumoniae serotype 4, UniProt Q54727, E68D/K536E/K577E/N393D/S59P). As to the kind of experiment: Substrate specificity of SpNanB. The following applies: pNP-tagged α2-3-linked sialosides.
In a further assay the test system is SpNanC. The assay is described as follows: Substrate specificity assay of SpNanC. The following applies: for Percentage conversion (%) by SpNanC: sialoside substrate 0.3 mM, SpNanC (2 μg), Tris-HCl pH 7.0, 30 min, 37° C.; for Cleavage by SpNanC, yield: reactions using 3 μg of SpNanC.

Consider `O=C(O)[C@@]1(O[C@H]2[C@@H](O)[C@@H](CO)O[C@@H](Oc3ccc([N+](=O)[O-])cc3)[C@@H]2O)C[C@H](O)[C@@H](F)[C@H]([C@H](O)[C@H](O)CO)O1` [Kdn5Fα2-3GalβpNP], for which the “Recognition by SpNanB (substrate specificity)” value (from here on “Recognition by SpNanB”) on SpNanB is given as “− (− represents <20% conversion)”. For the same compound, the “Percentage conversion (%) by SpNanC” value in the assay with SpNanC was found to be 0.48 ± 0.00%.
With `[N-]=[N+]=NC1C(O)CC(OC2C(O)C(CO)OC(Oc3ccc([N+](=O)[O-])cc3)C2O)(C(=O)O)OC1C(O)C(O)CO` (stereo not drawn) [Kdn5N3α2-3GalβpNP], the “Recognition by SpNanB” value at SpNanB was “− (− represents <20% conversion)”. The “Percentage conversion (%) by SpNanC” value with SpNanC is listed as 0.32 ± 0.45%.
Regarding `CO[C@H]1[C@H]([C@H](O)[C@H](O)CO)O[C@](O[C@H]2[C@@H](O)[C@@H](CO)O[C@@H](Oc3ccc([N+](=O)[O-])cc3)[C@@H]2O)(C(=O)O)C[C@@H]1O` [Kdn5OMe α2-3GalβpNP, Kdn5OMeα2-3GalβpNP], on SpNanB, the “Recognition by SpNanB” value is “− (− represents <20% conversion)”. Also, the “Percentage conversion (%) by SpNanC” value in the assay with SpNanC came to 1.53 ± 1.02%.
For `O=C(O)C1(OC2C(O)C(CO)OC(Oc3ccc([N+](=O)[O-])cc3)C2O)CC(O)CC(C(O)C(O)CO)O1` (stereo not drawn) [Kdn5deoxyα2-3GalβpNP] the same measures were “− (− represents <20% conversion)” and 5.31 ± 0.23%.
For the compound `O=C(O)[C@]1(O[C@H]2[C@@H](O)[C@@H](CO)O[C@@H](Oc3ccc([N+](=O)[O-])cc3)[C@@H]2O)C[C@H](O)[C@@H](O)[C@H]([C@H](F)[C@H](O)CO)O1` [Kdn7Fα2-3GalβpNP], the “Recognition by SpNanB” value at SpNanB is “− (− represents <20% conversion)”. The “Percentage conversion (%) by SpNanC” value with SpNanC was 0.56 ± 0.11%.
For `[N-]=[N+]=NC(C(O)CO)C1OC(OC2C(O)C(CO)OC(Oc3ccc([N+](=O)[O-])cc3)C2O)(C(=O)O)CC(O)C1O` (stereo not drawn) [Kdn7N3α2-3GalβpNP], the “Recognition by SpNanB” value at SpNanB was “− (− represents <20% conversion)”. The “Percentage conversion (%) by SpNanC” value in the assay on SpNanC turned out to be 4.50 ± 0.45%.
With `CO[C@@H]([C@@H]1O[C@](O[C@H]2[C@@H](O)[C@@H](CO)O[C@@H](Oc3ccc([N+](=O)[O-])cc3)[C@@H]2O)(C(=O)O)C[C@H](O)[C@H]1O)[C@H](O)CO` [Kdn7OMeα2-3GalβpNP], the “Recognition by SpNanB” value on SpNanB is listed as “− (− represents <20% conversion)”. In addition, in the assay on SpNanC, the “Cleavage by SpNanC, yield” value worked out at 23% and the “Percentage conversion (%) by SpNanC” value is 23.4 ± 3.3%.
Turning to `O=C(O)C1(OC2C(O)C(CO)OC(Oc3ccc([N+](=O)[O-])cc3)C2O)CC(O)C(O)C(CC(O)CO)O1` (stereo not drawn) [Kdn7deoxyα2-3GalβpNP], the “Recognition by SpNanB” value at SpNanB is listed as “− (− represents <20% conversion)”. Besides, in the assay with SpNanC, the “Cleavage by SpNanC, yield” value is 10% and the “Percentage conversion (%) by SpNanC” value was determined as 10.1 ± 0.0%.
Regarding `O=C(O)C1(OC2C(O)C(CO)OC(Oc3ccc([N+](=O)[O-])cc3)C2O)CC(O)C(O)C(C(O)C(O)CF)O1` (stereo not drawn) [Kdn9Fα2-3GalβpNP], the “Recognition by SpNanB” value at SpNanB is “− (− represents <20% conversion)”. In the assay on SpNanC, the “Percentage conversion (%) by SpNanC” value is recorded as 3.70 ± 1.14%.
Turning to `COCC(O)C(O)C1OC(OC2C(O)C(CO)OC(Oc3ccc([N+](=O)[O-])cc3)C2O)(C(=O)O)CC(O)C1O` (stereo not drawn) [Kdn9OMeα2-3GalβpNP], the “Recognition by SpNanB” value on SpNanB is listed as “− (− represents <20% conversion)”. Moreover, in the assay with SpNanC, the “Percentage conversion (%) by SpNanC” value was found to be 4.02 ± 1.36%.
For `O=C(O)[C@]1(O[C@H]2[C@@H](O)[C@@H](CO)O[C@@H](Oc3ccc([N+](=O)[O-])cc3)[C@@H]2O)C[C@H](O)[C@@H](O)[C@H]([C@H](O)[C@H](O)CO)O1` [Kdnα2-3GalβpNP] the same measures were “− (− represents <20% conversion)” and 4.50 ± 0.45%.
For the compound `CC(=O)NC1C(O)CC(OC2C(O)C(CO)OC(Oc3ccc([N+](=O)[O-])cc3)C2O)(C(=O)O)OC1C(F)C(O)CO` (stereo not drawn) [Neu5Ac7Fα2-3GalβpNP], the “Recognition by SpNanB” value on SpNanB is on record as “+ (+ represents >80% conversion)”. In the assay on SpNanC, the “Percentage conversion (%) by SpNanC” value was 91.0 ± 4.3%.
Consider `COC(C(O)CO)C1OC(OC2C(O)C(CO)OC(Oc3ccc([N+](=O)[O-])cc3)C2O)(C(=O)O)CC(O)C1NC(C)=O` (stereo not drawn) [Neu5Ac7OMeα2-3GalβpNP], for which the “Recognition by SpNanB” value on SpNanB is given as “+ (+ represents >80% conversion)”. In addition, in the assay with SpNanC, the “Percentage conversion (%) by SpNanC” value turned out to be 96.5 ± 1.7%.
For `CC(=O)N[C@H]1[C@H](C[C@H](O)CO)O[C@@](O[C@H]2[C@@H](O)[C@@H](CO)O[C@@H](Oc3ccc([N+](=O)[O-])cc3)[C@@H]2O)(C(=O)O)C[C@@H]1O` [Neu5Ac7deoxyα2-3GalβpNP], the “Recognition by SpNanB” value on SpNanB is listed as “+ (+ represents >80% conversion)”. In the assay on SpNanC, the “Percentage conversion (%) by SpNanC” value is given as 91.2 ± 1.8%.
`CC(=O)N[C@H]1[C@H]([C@H](O)[C@H](O)CF)O[C@@](O[C@H]2[C@@H](O)[C@@H](CO)O[C@@H](Oc3ccc([N+](=O)[O-])cc3)[C@@H]2O)(C(=O)O)C[C@@H]1O` [Neu5Ac9Fα2-3GalβpNP]: the “Recognition by SpNanB” value at SpNanB was “+ (+ represents >80% conversion)”. Besides, the “Percentage conversion (%) by SpNanC” value in the assay on SpNanC amounted to 75.6 ± 3.9%.
For `COCC(O)C(O)C1OC(OC2C(O)C(CO)OC(Oc3ccc([N+](=O)[O-])cc3)C2O)(C(=O)O)CC(O)C1NC(C)=O` (stereo not drawn) [Neu5Ac9OMeα2-3GalβpNP] the same measures were “+ (+ represents >80% conversion)” and 88.5 ± 5.1%.
Taken in the same sequence, the figures for `CC(=O)NC1C(O)CC(OC2C(O)C(CO)OC(Oc3ccc([N+](=O)[O-])cc3)C2O)(C(=O)O)OC1C(O)C(C)O` (stereo not drawn) [Neu5Ac9deoxyα2-3GalβpNP] were “+ (+ represents >80% conversion)” and 93.5 ± 3.1%.
For `O=C(CF)NC1C(O)CC(OC2C(O)C(CO)OC(Oc3ccc([N+](=O)[O-])cc3)C2O)(C(=O)O)OC1C(O)C(O)CO` (stereo not drawn) [Neu5AcFα2-3GalβpNP], on SpNanB, the “Recognition by SpNanB” value is listed as “+ (+ represents >80% conversion)”. Also, the “Percentage conversion (%) by SpNanC” value with SpNanC is recorded as 74.8 ± 3.2%.
Taken in the same sequence, the figures for `[N-]=[N+]=NCC(=O)N[C@H]1[C@H]([C@H](O)[C@H](O)CO)O[C@@](O[C@H]2[C@@H](O)[C@@H](CO)O[C@@H](Oc3ccc([N+](=O)[O-])cc3)[C@@H]2O)(C(=O)O)C[C@@H]1O` [Neu5AcN3α2-3GalβpNP] were “+ (+ represents >80% conversion)” and 87.9 ± 1.6%.
Consider `COCC(=O)NC1C(O)CC(OC2C(O)C(CO)OC(Oc3ccc([N+](=O)[O-])cc3)C2O)(C(=O)O)OC1C(O)C(O)CO` (stereo not drawn) [Neu5AcOMeα2-3GalβpNP], for which, on SpNanB, the “Recognition by SpNanB” value is recorded as “+ (+ represents >80% conversion)”. Also, the “Percentage conversion (%) by SpNanC” value in the assay with SpNanC stood at 81.8 ± 1.7%.
Turning to `O=C(CO)NC1C(O)CC(OC2C(O)C(CO)OC(Oc3ccc([N+](=O)[O-])cc3)C2O)(C(=O)O)OC1C(O)C(O)CF` (stereo not drawn) [Neu5Gc9Fα2-3GalβpNP], the “Recognition by SpNanB” value at SpNanB is “+ (+ represents >80% conversion)”. The “Percentage conversion (%) by SpNanC” value in the assay on SpNanC is recorded as 72.3 ± 2.6%.
In the case of `[N-]=[N+]=NCC(O)C(O)C1OC(OC2C(O)C(CO)OC(Oc3ccc([N+](=O)[O-])cc3)C2O)(C(=O)O)CC(O)C1NC(=O)CO` (stereo not drawn) [Neu5Gc9N3α2-3GalβpNP], on SpNanB, the “Recognition by SpNanB” value is “+ (+ represents >80% conversion)”. Further, in the assay on SpNanC, the “Percentage conversion (%) by SpNanC” value turned out to be 89.5 ± 3.5%.
For `COCC(O)C(O)C1OC(OC2C(O)C(CO)OC(Oc3ccc([N+](=O)[O-])cc3)C2O)(C(=O)O)CC(O)C1NC(=O)CO` (stereo not drawn) [Neu5Gc9OMeα2-3GalβpNP], the “Recognition by SpNanB” value on SpNanB is on record as “+ (+ represents >80% conversion)”. Besides, the “Percentage conversion (%) by SpNanC” value in the assay on SpNanC amounted to 75.0 ± 1.9%.
For `C[C@@H](O)[C@@H](O)[C@@H]1O[C@@](O[C@H]2[C@@H](O)[C@@H](CO)O[C@@H](Oc3ccc([N+](=O)[O-])cc3)[C@@H]2O)(C(=O)O)C[C@H](O)[C@H]1NC(=O)CO` [Neu5Gc9deoxyα2-3GalβpNP], the “Recognition by SpNanB” value on SpNanB is “+ (+ represents >80% conversion)”. For the same compound, in the assay with SpNanC, the “Percentage conversion (%) by SpNanC” value amounted to 85.5 ± 1.4%.
For `O=C(CO)NC1C(O)CC(OC2C(O)C(CO)OC(Oc3ccc([N+](=O)[O-])cc3)C2O)(C(=O)O)OC1C(O)C(O)CO` (stereo not drawn) [Neu5Gcα2-3GalβpNP], the “Recognition by SpNanB” value on SpNanB is “+ (+ represents >80% conversion)”. Besides, the “Percentage conversion (%) by SpNanC” value with SpNanC worked out at 80.6 ± 6.7%.
Take Neu5Ac7N3α2-3GalβpNP: on SpNanB, the “Recognition by SpNanB” value is recorded as “+ (+ represents >80% conversion)”. For the same compound, the “Percentage conversion (%) by SpNanC” value in the assay with SpNanC is recorded as 65.9 ± 1.1%.
